Patent US20240327417A1, “HETEROCYCLIC COMPOUNDS” (BeiGene Switzerland GmbH, priority 2021, published 2024)

Assays:
[1] = molecular target: T1, Full length DGKζ (in-house protein M1-V929) (Homo sapiens, UniProt Q13574); assay: Biochemical DGK IC50 assay (ADP-Glo, lipid micelle substrate), DGKζ; details: 0.5 nM enzyme, 140 μM ATP, 80 μM DAG, 1 hour preincubation, 1 hour reaction, room temperature, read-out: IC50s for DGKζ
T1 construct: His (N); TEV cleavage site (N); made in house; host or cells: Sf9 insect cells (baculovirus, Bac-to-Bac)
Summary of the method: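 In-house full-length human DGKζ, baculovirus-expressed in Sf9 cells, was assayed with a DAG/PS lipid micelle substrate at room temperature. Buffer was 50 mM HEPES, 10 mM MgCl2, 0.01% BSA, 0.1 mM Na3VO4, 0.005% Tween-20, 0.01 mM CaCl2, with final compound 1.55˜10000 nM or 23.3˜150000 nM.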

[2] = molecular target: T2, Full length DGKα (D21-10BG, SignalChem) (Homo sapiens, UniProt P23743); assay: Biochemical DGK IC50 assay (ADP-Glo, lipid micelle substrate), DGKα; details: 7.5 nM enzyme, 140 μM ATP, 80 μM DAG, 1 hour preincubation, 1 hour reaction, room temperature, read-out: IC50s for DGKα
T2 construct: Full length DGKα (D21-10BG, SignalChem); purchased SignalChem D21-10BG
Summary of the method: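 Full-length enzyme was assayed by ADP-Glo on DAG/PS lipid micelles at room temperature in HEPES/MgCl2/CaCl2 buffer with BSA, Na3VO4 and Tween-20, using a 1 h reaction and luminescence read-out.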

T2 sequence (P23743 whole entry): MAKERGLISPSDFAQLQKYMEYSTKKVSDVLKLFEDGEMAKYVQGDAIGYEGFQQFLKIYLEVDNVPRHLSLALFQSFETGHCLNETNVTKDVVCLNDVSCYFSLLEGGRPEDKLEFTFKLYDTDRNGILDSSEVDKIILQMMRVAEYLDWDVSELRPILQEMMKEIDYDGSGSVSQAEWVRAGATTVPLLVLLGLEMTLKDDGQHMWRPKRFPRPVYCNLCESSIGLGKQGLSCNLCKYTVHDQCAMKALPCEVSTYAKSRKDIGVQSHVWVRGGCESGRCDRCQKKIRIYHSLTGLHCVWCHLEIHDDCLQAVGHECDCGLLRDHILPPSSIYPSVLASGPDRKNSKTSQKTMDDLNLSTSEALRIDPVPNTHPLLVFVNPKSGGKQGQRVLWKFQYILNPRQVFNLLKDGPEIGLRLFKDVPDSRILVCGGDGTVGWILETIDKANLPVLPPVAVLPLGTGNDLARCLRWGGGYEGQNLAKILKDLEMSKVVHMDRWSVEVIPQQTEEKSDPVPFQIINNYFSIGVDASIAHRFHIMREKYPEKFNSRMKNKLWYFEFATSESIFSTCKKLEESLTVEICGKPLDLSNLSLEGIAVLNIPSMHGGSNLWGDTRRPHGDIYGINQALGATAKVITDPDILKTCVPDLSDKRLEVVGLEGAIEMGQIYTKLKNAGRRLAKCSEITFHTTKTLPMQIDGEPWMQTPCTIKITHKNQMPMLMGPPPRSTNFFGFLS
T1 sequence (Q13574 1-929 isoform Q13574-4): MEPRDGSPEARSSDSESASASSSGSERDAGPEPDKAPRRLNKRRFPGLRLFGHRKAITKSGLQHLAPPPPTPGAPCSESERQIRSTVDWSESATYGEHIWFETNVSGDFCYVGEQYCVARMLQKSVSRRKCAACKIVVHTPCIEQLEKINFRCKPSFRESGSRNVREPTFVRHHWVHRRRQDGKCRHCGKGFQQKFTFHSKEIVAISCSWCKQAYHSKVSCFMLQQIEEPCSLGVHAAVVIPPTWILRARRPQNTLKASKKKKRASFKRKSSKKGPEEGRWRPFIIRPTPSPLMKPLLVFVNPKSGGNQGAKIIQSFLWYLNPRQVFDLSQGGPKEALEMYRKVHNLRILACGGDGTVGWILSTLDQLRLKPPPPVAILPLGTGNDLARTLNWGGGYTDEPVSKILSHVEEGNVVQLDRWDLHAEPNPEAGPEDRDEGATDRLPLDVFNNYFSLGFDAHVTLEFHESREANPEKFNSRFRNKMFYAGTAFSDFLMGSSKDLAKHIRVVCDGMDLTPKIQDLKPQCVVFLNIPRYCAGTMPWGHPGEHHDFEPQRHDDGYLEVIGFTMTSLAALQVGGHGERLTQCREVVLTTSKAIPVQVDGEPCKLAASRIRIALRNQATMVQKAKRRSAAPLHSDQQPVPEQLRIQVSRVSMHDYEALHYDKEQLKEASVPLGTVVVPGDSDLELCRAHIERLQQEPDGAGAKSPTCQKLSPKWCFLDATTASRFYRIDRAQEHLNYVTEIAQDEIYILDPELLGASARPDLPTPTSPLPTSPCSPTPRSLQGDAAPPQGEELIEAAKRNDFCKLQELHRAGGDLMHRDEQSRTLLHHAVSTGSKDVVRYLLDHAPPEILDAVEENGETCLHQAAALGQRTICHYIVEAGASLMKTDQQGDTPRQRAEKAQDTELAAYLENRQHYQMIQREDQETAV

Structure (SMILES)	IC50 [1] [nM]	IC50 [2] [nM]
[2H]C([2H])([2H])c1nc2ccc(C(C)N3C[C@H](CC)N(c4cc(=O)n(C([2H])([2H])[2H])n5cc(CC#N)nc45)C[C@H]3CC)cc2s1 (single isomer, unassigned) [Compound A97b]	1150	1160
CC[C@H]1CN(C(C)c2ccc3nc(C)sc3n2)[C@H](CC)CN1c1cc(=O)n(C)n2cc(C=NOC)nc12 (single isomer, unassigned) [Compound A124d]	630	5.9
CCc1nc2ccc(C(C)N3C[C@H](C)N(c4cc(=O)n(C)n5cc(CC#N)nc45)C[C@H]3CC)cc2s1 (single isomer, unassigned) [Compound A101a]	29	851
[2H]C([2H])([2H])c1nc2ccc(C(C)N3C[C@H](CC)N(c4cc(=O)n(C([2H])([2H])[2H])n5cc(CC#N)nc45)C[C@H]3CC)cc2s1 (single isomer, unassigned) [Compound A97a]	24	79
CC[C@H]1CN(C(C)c2ccc(OC(C)C)cc2)[C@H](CC)CN1c1cc(=O)n(C)n2cc(CC#N)nc12 (stereo partly drawn) [Compound A51, 2-(8-((2S,5R)-2,5-diethyl-4-(1-(4-isopropoxyphenyl)ethyl)piperazin-1-yl)-5-methyl-6-oxo-5,6-dihydroimidazo[1,2-b]pyridazin-2-yl)acetonitrile]	284	90
CC[C@H]1CN(C(C)c2cc3scnc3cc2F)[C@H](CC)CN1c1cc(=O)n(C)n2cc(CC#N)nc12 (single isomer, unassigned) [Compound A59b]	2610	1580
COC(C)c1cn2c(n1)c(N1C[C@@H](C)N(C(C)c3ccc4nccnc4c3)C[C@@H]1C)cc(=O)n2C (stereo partly drawn) [Compound A5, 8-((2S,5R)-2,5-dimethyl-4-(1-(quinoxalin-6-yl)ethyl)piperazin-1-yl)-2-(1-methoxyethyl)-5-methylimidazo[1,2-b]pyridazin-6(5H)-one]	11000	22000
CC[C@H]1CN(C(C)c2ccc(C3CC3(F)F)nc2)[C@H](CC)CN1c1cc(=O)n(C)n2cc(CC#N)nc12 (single isomer, unassigned) [Compound A70a]	244	102
CC[C@H]1CN(C(C)c2ccc3nccnc3c2)[C@H](CC)CN1c1cc(=O)n(C)n2cc(COC)nc12 (single isomer, unassigned) [Compound A8b]	1330	5080
CC[C@H]1CN(C(C)c2ccc3ncsc3n2)[C@H](CC)CN1c1cc(=O)n(C)n2cc(CC#N)nc12 (single isomer, unassigned) [Compound A57b]	357	172
CCC(c1ccc2nc(C)sc2n1)N1C[C@H](CC)N(c2cc(=O)n(C)n3cc(CC#N)nc23)C[C@H]1CC (single isomer, unassigned) [Compound A99b]	11	21
CC[C@@H]1CN(c2cc(=O)n(C)n3cc(CC#N)nc23)[C@@H](C)CN1C(C)c1ccc2ccsc2n1 (stereo partly drawn) [Compound A86, 2-(8-((2S,5R)-5-ethyl-2-methyl-4-(1-(thieno[2,3-b]pyridin-6-yl)ethyl)piperazin-1-yl)-5-methyl-6-oxo-5,6-dihydroimidazo[1,2-b]pyridazin-2-yl)acetonitrile]	36	18
CC[C@H]1CN(C(C)c2ccc3nc(C)sc3c2)[C@H](CC)CN1c1cc(=O)n(C)n2cc(CC#N)nc12 (single isomer, unassigned) [Compound A56a]	11	87
CC[C@H]1CN(C(C)c2ccc3nc(C4CC4)sc3n2)[C@H](CC)CN1c1cc(=O)n(C)n2cc(CC#N)nc12 (single isomer, unassigned) [Compound A109b]	28	113
CC[C@H]1CN(C(C)c2ccc3nc(C)sc3n2)[C@H](CC)CN1c1c(C#N)c(=O)n(C)n2cc(CC#N)nc12 (single isomer, unassigned) [Compound A112a]	3500	752
CC[C@H]1CN(C(C)c2ccc(C3(F)CC3)cc2)[C@H](CC)CN1c1cc(=O)n(C)n2cc(CC#N)nc12 (stereo partly drawn) [Compound A88, 2-(8-((2S,5R)-2,5-diethyl-4-(1-(4-(1-fluorocyclopropyl)phenyl)ethyl)piperazin-1-yl)-5-methyl-6-oxo-5,6-dihydroimidazo[1,2-b]pyridazin-2-yl)acetonitrile]	39	72

Structure (SMILES)	IC50 [1] [nM]	IC50 [2] [nM]
CC[C@H]1CN(C(C)c2ccc(C(F)(F)F)cc2F)[C@H](CC)CN1c1cc(=O)n(C)n2cc(CC#N)nc12 (single isomer, unassigned) [Compound A92b]	1610	803
CC[C@H]1CN(C(C)c2ccc(C(C)C)nc2)[C@H](CC)CN1c1cc(=O)n(C)n2cc(CC#N)nc12 (single isomer, unassigned) [Compound A38b]	475	423
CC[C@H]1CN(C(C)c2ccc3ncsc3c2F)[C@H](CC)CN1c1cc(=O)n(C)n2cc(CC#N)nc12 (single isomer, unassigned) [Compound A62a]	8.5	105
CC[C@H]1CN(C(C)c2ccc(C3CC3)nc2)[C@H](CC)CN1c1cc(=O)n(C)n2cc(CC#N)nc12 (single isomer, unassigned) [Compound A37a]	20	44
CC[C@H]1CN(C(C)c2ccc3nc(C)sc3c2)[C@H](CC)CN1c1cc(=O)n(C)n2cc(C=NOC)nc12 (single isomer, unassigned) [Compound A123bc]	2390	131
CCC(c1ccc2nc(C)sc2n1)N1C[C@H](CC)N(c2cc(=O)n(C)n3cc(CC#N)nc23)C[C@H]1CC (single isomer, unassigned) [Compound A99a]	132	196
CC[C@H]1CN(C(C)c2ccc3nc(C)sc3n2)[C@H](CC)CN1c1c(Br)c(=O)n(C)n2cc(CC#N)nc12 (stereo partly drawn) [Compound A83, 2-(7-bromo-8-((2S,5R)-2,5-diethyl-4-(1-(2-methylthiazolo[5,4-b]pyridin-5-yl)ethyl)piperazin-1-yl)-5-methyl-6-oxo-5,6-dihydroimidazo[1,2-b]pyridazin-2-yl)acetonitrile]	> 10000	42600
CC[C@H]1CN(C(C)c2ccc(C3CC3)nc2F)[C@H](CC)CN1c1cc(=O)n(C)n2cc(CC#N)nc12 (single isomer, unassigned) [Compound A42a]	57	339
Cc1cnc2ccc(C(C)N3C[C@H](C)N(c4cc(=O)n(C)n5cc(CC#N)nc45)C[C@H]3C)cc2n1 (single isomer, unassigned) [Compound A2b]	11	11600
CC[C@H]1CN(C(C)c2ccc3ncsc3c2F)[C@H](CC)CN1c1cc(=O)n(C)n2cc(CC#N)nc12 (single isomer, unassigned) [Compound A62b]	1210	2390
CC[C@H]1CN(C(C)c2ccc(C(C)C)nc2)[C@H](CC)CN1c1cc(=O)n(C)n2cc(CC#N)nc12 (single isomer, unassigned) [Compound A38a]	21	43
CC[C@H]1CN(C(C)c2ccc3nc(C)sc3c2F)[C@H](C)CN1c1cc(=O)n(C)n2cc(CC#N)nc12 (single isomer, unassigned) [Compound A119a]	1460	2050
CCc1nc2ccc(C(C)N3C[C@H](C)N(c4cc(=O)n(C)n5cc(CC#N)nc45)C[C@H]3CC)cc2s1 (single isomer, unassigned) [Compound A101b]	1110	2360
CC(c1ccc2c(c1)OC(C)(C)CO2)N1C[C@H](C)N(c2c(C#N)c(=O)n(C)n3cc(CC#N)nc23)C[C@H]1C (mixture of isomers) [Compound A27, 2-(cyanomethyl)-8-((2S,5R)-4-(1-(3,3-dimethyl-2,3-dihydrobenzo[b][1,4]dioxin-6-yl)ethyl)-2,5-dimethylpiperazin-1-yl)-5-methyl-6-oxo-5,6-dihydroimidazo[1,2-b]pyridazine-7-carbonitrile]	10	858
CC[C@H]1CN(C(C)c2ccc3scnc3c2)[C@H](CC)CN1c1cc(=O)n(C)n2cc(CC#N)nc12 (single isomer, unassigned) [Compound A65b]	158	157
